From patent publication US20170246204A1, “MEDICAMENT FOR TREATING A DISEASE RELATING TO A DYSFUNCTION OF THE DOPAMINERGIC SYNAPTIC TRANSMISSION” (L'Air Liquide, Société Anonyme pour l'Etude et …, priority 2014, published 2017)

Experiments:
[1] = system: dopaminergic neurons (TH+) of rat mesencephalon cultures; assay: neurite length per TH+ dopaminergic neuron in mesencephalon cultures; assay type: cell-based; conditions: D14; memantine 10 μM; 75% Xe or 75% N2; p<0.05, n=9
Experimental: Cultures are prepared from mesencephalon of rat embryos, taking from female Wistar rats, on day 15.5 of gestation. The process for obtaining the mesencephalon cultures comprises the obtaining of a homogeneous cell suspension by mechanical dissociation, that is to say non-enzymatic dissociation, of the embryonic tissue, using Leibovitz's L15 medium (Sigma Aldrich). Aliquots of this suspension are added to 48-well Nunc plates, which have been precoated with a thin layer of polyethyleneimine (1 mg/ml, borate buffer, pH 8.3) so as to allow the adhesion of neuronal cells (Toulorge et al., Faseb J, 2011). The seeding density is between approximately 80 000 and 100 000 cells/cm^2. The mesencephalon cultures are maintained in Minimum Essential culture Medium (MEM), containing 1 g/l of glucose, 2 mM of L-glutamine, 1 mM of sodium pyruvate, non-essential amino acids and a penicillin/streptomycin cocktail. For the first week of culture, this medium is supplemented with 10% of fetal calf serum and 10% of horse serum. […] Up until the moment when the effects of the gases of interest are evaluated, the cultures are placed in a conventional enclosure thermostated at 37° C., in which the CO2 is maintained at 5% by volume and wherein the atmosphere is saturated with water. […] This parameter is evaluated with the same HCS Studio software.

[2] = system: dopaminergic neurons (TH+) of rat mesencephalon cultures; assay: tritiated dopamine reuptake per TH+ dopaminergic neuron in mesencephalon cultures; assay type: cell-based; conditions: D14; memantine 10 μM; 75% Xe or 75% N2; p<0.05, n=9
Experimental: Cultures are prepared from mesencephalon of rat embryos, taking from female Wistar rats, on day 15.5 of gestation.
The process for obtaining the mesencephalon cultures comprises the obtaining of a homogeneous cell suspension by mechanical dissociation, that is to say non-enzymatic dissociation, of the embryonic tissue, using Leibovitz's L15 medium (Sigma Aldrich).
Aliquots of this suspension are added to 48-well Nunc plates, which have been precoated with a thin layer of polyethyleneimine (1 mg/ml, borate buffer, pH 8.3) so as to allow the adhesion of neuronal cells (Toulorge et al., Faseb J, 2011).
The seeding density is between approximately 80 000 and 100 000 cells/cm^2.
The mesencephalon cultures are maintained in Minimum Essential culture Medium (MEM), containing 1 g/l of glucose, 2 mM of L-glutamine, 1 mM of sodium pyruvate, non-essential amino acids and a penicillin/streptomycin cocktail. For the first week of culture, this medium is supplemented with 10% of fetal calf serum and 10% of horse serum. Starting from the second week, the serum concentrations are reduced to 2% (Gao et al., J Neurosci, 2002).
Up until the moment when the effects of the gases of interest are evaluated, the cultures are placed in a conventional enclosure thermostated at 37° C., in which the CO2 is maintained at 5% by volume and wherein the atmosphere is saturated with water. […]

Structure (SMILES) | neurite length per TH^+ neuron, effect compared with control cultures under 75% nitrogen (FIG. 2) [1] | dopamine reuptake per TH^+ neuron, effect compared with control cultures under 75% nitrogen (FIG. 1) [2]
[Xe] [Xenon, xenon] | significantly greater | significantly greater
CC12CC3CC(C)(C1)CC(N)(C3)C2 [Memantine, memantine] | significantly greater | significantly greater
